In patent US11236106B2, “Cycloalkane-1,3-diamine derivative” (Daiichi Sankyo Company, Limited, priority 2018, dated 2022):
Where a name gives a salt, the structure may show the parent alone.

Molecular target: T1, menin and MLL (menin, Flag tagged; biotinylated MLL1 peptide 1-46aa) (Homo sapiens, UniProt O00255)
T1 sequence (O00255 1-610): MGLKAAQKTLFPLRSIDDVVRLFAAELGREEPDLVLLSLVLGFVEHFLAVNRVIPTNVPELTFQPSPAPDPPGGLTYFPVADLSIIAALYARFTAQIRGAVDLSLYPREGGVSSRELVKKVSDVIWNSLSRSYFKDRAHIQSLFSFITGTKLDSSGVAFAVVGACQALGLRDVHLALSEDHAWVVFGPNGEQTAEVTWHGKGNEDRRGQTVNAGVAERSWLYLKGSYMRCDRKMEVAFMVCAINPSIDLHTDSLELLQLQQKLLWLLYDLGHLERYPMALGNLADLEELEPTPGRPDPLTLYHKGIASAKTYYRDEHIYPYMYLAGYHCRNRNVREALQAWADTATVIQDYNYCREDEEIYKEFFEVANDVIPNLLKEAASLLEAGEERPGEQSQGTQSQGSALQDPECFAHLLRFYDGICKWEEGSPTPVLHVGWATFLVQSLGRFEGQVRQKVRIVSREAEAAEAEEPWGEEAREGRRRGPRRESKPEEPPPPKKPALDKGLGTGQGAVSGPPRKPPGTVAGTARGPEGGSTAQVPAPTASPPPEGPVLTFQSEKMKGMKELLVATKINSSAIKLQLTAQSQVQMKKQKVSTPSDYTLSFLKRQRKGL
Experiment: biochemical
Conditions: cell free IC50 (nM), 1 nM menin, 10 nM biotinylated MLL1 peptide, AlphaLISA
Description: Then, the fluorescence signal by AlphaLISA (registered trademark, PerkinElmer Co., Ltd.) was measured using a plate reader (PerkinElmer Co., Ltd., EnVisionXcite).

Question: How did the IC50 turn out when COc1cncc(-c2ccc(CN[C@@H]3C[C@H](N(C)c4ncnc5sc(CC(F)(F)F)cc45)[C@@H](O)[C@H]3O)cc2)c1 [Example 20B, (1R,2S,3R,5S)-3-({[4-(5-methoxypyridin-3-yl)phenyl]methyl}amino)-5-{methyl[6-(2,2,2-trifluoroethyl)thieno[2,3-d]pyrimidin-4-yl]amino}cyclopentane-1,2-diol Hydrochloride] was run?
Answer: The IC50 was 16.4 nM.

Question: CN(c1nc(N)nc2sc(CC(F)(F)F)cc12)[C@H]1C[C@@H](NCc2ccc(-n3ccnc3)cc2)C[C@H]1O [Example 21, (1R,2S,4R)-2-{[2-amino-6-(2,2,2-trifluoroethyl)thieno[2,3-d]pyrimidin-4-yl](methyl)amino}-4-({[4-(1H-imidazol-1-yl)phenyl]methyl}amino)cyclopentan-1-ol Hydrochloride] was tested. Which IC50 did it give?
Answer: The IC50 was 7 nM.

Question: How did the IC50 turn out when CNc1nc(N(C)[C@H]2C[C@@H](NCc3ccc(-c4cnc(OC)c(OC)c4)cc3)C[C@@H]2OC)c2cc(CC(F)(F)F)sc2n1 [Example 24, N^4-[(1S,2S,4R)-4-({[4-(5,6-dimethoxypyridin-3-yl)phenyl]methyl}amino)-2-methoxycyclopentyl]-N^2,N^4-dimethyl-6-(2,2,2-trifluoroethyl)thieno[2,3-d]pyrimidine-2,4-diamine Hydrochloride] was run?
Answer: Its IC50 is 4.1 nM.

Question: CN(c1ncnc2sc(CC(F)(F)F)cc12)[C@@H]1CC[C@H](NCC2CCCCC2)C1 [Example 28, (1R,3S)-N^3-(cyclohexylmethyl)-N^1-methyl-N^1-[6-(2,2,2-trifluoroethyl)thieno[2,3-d]pyrimidin-4-yl]cyclopentane-1,3-diamine hydrochloride] was tested. Which IC50 did it give?
Answer: Its IC50 is 1160 nM.

Question: For CC(=O)Nc1ccc(CN[C@H]2CCC[C@@H](Nc3ncnc4sc(CC(F)(F)F)cc34)C2)cc1 [Example 29, N-[4-({[(1S,3R)-3-{[6-(2,2,2-trifluoroethyl)thieno[2,3-d]pyrimidin-4-yl]amino}cyclohexyl]amino}methyl)phenyl]acetamide hydrochloride], which IC50 is on record?
Answer: The IC50 was 464 nM.

Question: How did the IC50 turn out when CN(c1ncnc2sc(CC(F)(F)F)cc12)[C@@H]1CC[C@H](NCc2ccc(OCCN3CCOCC3)cc2)C1 [Example 30, (1R,3S)-N^1-methyl-N^3-({4-[2-(morpholin-4-yl)ethoxy]phenyl}methyl)-N^1-[6-(2,2,2-trifluoroethyl)thieno[2,3-d]pyrimidin-4-yl]cyclopentane-1,3-diamine hydrochloride] was run?
Answer: Its IC50 is 44.6 nM.

Question: CN(c1ncnc2sc(CC(F)(F)F)cc12)[C@@H]1CC[C@H](NCc2ccc(OCCO)c(F)c2)C1 [Example 31, 2-[2-fluoro-4-({[(1S,3R)-3-{methyl[6-(2,2,2-trifluoroethyl)thieno[2,3-d]pyrimidin-4-yl]amino}cyclopentyl]amino}methyl)phenoxy]ethan-1-ol hydrochloride] was tested. Which IC50 did it give?
Answer: The IC50 was 46.4 nM.

Question: With CN(c1ncnc2sc(CC(F)(F)F)cc12)[C@@H]1CC[C@H](NCc2cnn(-c3ccccc3)c2)C1 [Example 32, (1R,3S)-N^1-methyl-N^3-[(1-phenyl-1H-pyrazol-4-yl)methyl]-N^1-[6-(2,2,2-trifluoroethyl)thieno[2,3-d]pyrimidin-4-yl]cyclopentane-1,3-diamine hydrochloride] as the compound, how does the IC50 read?
Answer: Its IC50 is 94.9 nM.

Question: With C=CS(=O)(=O)NCCCNC(=O)c1ccc(CN[C@H]2CC[C@@H](N(C)c3ncnc4sc(CC(F)(F)F)cc34)C2)cc1 [Example 34, N-{-3-[(ethenesulfonyl)amino]propyl}-4-({[(1S,3R)-3-{methyl[6-(2,2,2-trifluoroethyl)thieno[2,3-d]pyrimidin-4-yl]amino}cyclopentyl]amino}methyl)benzamide hydrochloride] as the compound, how does the IC50 read?
Answer: Its IC50 is 413 nM.

Question: For FC(F)(F)Cc1cc2c(N[C@@H]3CCC[C@H](NCc4ccc(-c5ncco5)cc4)C3)ncnc2s1 [Example 35, (1S,3R)-N^1-{[4-(1,3-oxazol-2-yl)phenyl]methyl}-N^3-[6-(2,2,2-trifluoroethyl)thieno[2,3-d]pyrimidin-4-yl]cyclohexane-1,3-diamine hydrochloride], which IC50 is on record?
Answer: Its IC50 is 1220 nM.
